Data published in patent US11046657B2, “Pyrimidinone derivatives and uses thereof to neutralize the biological activity of chemokines” (Centre National de la Recherche Scientifique (CNRS), priority 2016, dated 2021).
Values after ≈ are worked out from the molar mass of the structure shown. “Also recorded” adds a separate entry of the source. Like-named read-outs stand apart in the source and are kept apart here.

Columns and labels:
[1] = test system: Balb/c mice topically administered MC903; assay: Murine model of atopic dermatitis induced by MC903; format: in vivo, mouse; details: 350 μmol/kg topical in acetone/olive oil, 2 h before each MC903 application, D1-D13
Procedure: FIG. 2A. In vivo effect of a topical treatment with chalcone 4 and compound (1). Mouse ears were treated with MC903 (calcipotriol, 2 nmol/ear or 4 nmol/ear) or its solvent (ethanol EtOH) together with 350 μmol/kg chalcone 4 (upper row of images) or compound (1) (lower row of images) or solvent (acetone/olive oil 50/50, AOO). Chalcone 4 and compound (1) were dissolved in AOO and administered topically 2 h before each MC903 application. MC903 was dissolved in EtOH and topically applied.
FIG. 2B. Increase in ear thickness over time (D1-D13) was determined with a caliper on animals treated with MC903 or solvent (EtOH), and compound (1) or solvent (AOO) as described for FIG. 2A. Data points are means and bars are S.E.M. values of n=6 determinations.
FIG. 2C. Increase in ear thickness over time (D1-D13) was determined with a caliper on animals treated with MC903 or solvent (EtOH) and […] or solvent (AOO). Data points are means and bars are S.E.M. values of n=6 determinations.
The in vivo activity of compound (1) was tested in a murine model of atopic dermatitis as previously described (Zhang et al, Proc Nat Acad Si USA 2009, 106, 1536-41). Briefly, Balb/c mice were topically administered with a vitamin D analogue, MC903 (2 or 4 nmol/ear) every other day for 13 days. […]

CXCR4 = details: cited from earlier work
Stability after 24 h = format: physicochemical; details: monitored after 24 h
Procedure: (§1) Their solubility in assay media was evaluated. (2-Hydroxypropyl)-o-cyclodextrin (Cdx) was used as excipient because of its low toxicity and its capacity to increase bioavailability. […] The compound stability was evaluated in PBS only and in PBS/Cdx.

[2] = Solubility in assay media; format: physicochemical
Procedure: as §1

CXCR4-CXCL12 binding = molecular target: T1, CXCR4-CXCL12 binding (Homo sapiens, UniProt P48061); assay: Inhibition of CXCL12-TR binding to CXCR4-GFP (FRET); details: 10 μM
T1 construct: expressed in transfected cells
T1 sequence (P48061 22-89 limits assumed): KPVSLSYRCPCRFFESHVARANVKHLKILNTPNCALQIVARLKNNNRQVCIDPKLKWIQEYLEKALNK
Procedure: Study of the changes of CXCR4-CXCL12 binding was achieved by the energy transfer technique^10,11.
Binding of Texas red-labelled CXCL12 with CXCR4-GFP fused receptor^11 induces fluorescence resonance energy transfer (FRET), which can be monitored by the reduction of GFP fluorescence emission. The characterization of CXCL12 neutraligands was evaluated in two conditions, differing by the sequence of addition of molecules. Reduction of GFP fluorescence emission was more important when neutraligands were preincubated (30 min) […] prior to the addition to cells.
The CXCR4 antagonist, T134 (20 μM) was used as a control in both incubation protocols. Data obtained were consistent with a binding to the chemokine and not to its receptor. Consequently, all selected compounds are indeed CXCL12 chemokine neutraligands and behave as chalcone-4. The neutralizing properties of the compounds are thus confirmed.

MRL/lpr mice = assay: Peripheral hypercellularity in MRL/lpr lupus prone mice; format: in vivo; details: single i.v. administration, 100 μg/mouse, counted five days later; p <0.05
Procedure: Effect of compound (1) and classical anti-inflammatory drugs on peripheral hypercellularity in MRL/lpr mice. MRL/lpr mice (11-13 week-old) received intravenously a single administration of either compound (1) or chalcone 4-Phosphate or indicated molecules in saline (100 μg/mouse of each). The control group received saline only. The number of white blood cells (WBCs)/mL was evaluated by counting cells five days later. The results are expressed as the mean reduction of peripheral WBCs percentage+/−SEM. Statistical significance was assessed using the unpaired t-test. n=number of mice/group; ns=non-significant. […]
The test was as described previously (Schall et al., 2012; Briand et al., 2014). […] After centrifugation, white blood cells (WBCs) resuspended in phosphate buffer saline containing fetal calf serum were stained with acridine orange/propidium iodide and counted using a LUNA FL apparatus (logos Biosystems, Annandale, USA). The number of living WBCs in each group was compared to the one counted in the control group and the decrease of peripheral cell number was calculated. […] The results are expressed as the mean decreased of peripheral WBCs percentage SEM. Statistical differences were determined using the unpaired t test. Statistical results were calculated using the graphPad Prism software.

C57BL/6J mice = assay: Fentanyl-induced hyperalgesia, tail immersion test
CCL17 = molecular target: T2, CCL17 (Homo sapiens, UniProt Q92583); assay: Selectivity towards chemokine CCL17; details: 5 μM
T2 sequence (Q92583 24-94): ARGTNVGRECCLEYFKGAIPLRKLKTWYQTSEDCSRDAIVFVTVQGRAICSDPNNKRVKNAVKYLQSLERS
Procedure: Furthermore, the selectivity of (1) was also evaluated towards two other chemokines, namely CCL17 and CCL22, with no activity at 5 μM (data not shown).

[3] = PBS with (2-hydroxypropyl)-cyclodextrin (Cdx) 10% w/w, aqueous with cosolvent or surfactant or cyclodextrin, PBS/Cdx (10% w/w), read-out: Solubility PBS/Cdx
[4] = PBS, aqueous buffer, read-out: Solubility PBS

| SMILES | Atopic response to MC903 (ear thickness) [1] | CXCR4 internalization in response to CXCL12 (CXCR4) | Stability PBS/Cdx (Stability after 24 h) | Stability PBS (Stability after 24 h) | solubility [2, 3] | solubility [2, 4] | inhibition at 10 µM (CXCR4-CXCL12 binding; Table 3) | Peripheral blood hypercellularity (WBCs) (MRL/lpr mice) | Secondary hyperalgesia induced by fentanyl (C57BL/6J mice; 10 mg/kg i.p., co-administered with fentanyl) | Nociceptive threshold, compound alone (C57BL/6J mice; 50 mg/kg, i.p., without fentanyl) | Activity towards CCL17 (CCL17) | Solubility compared with chalcone-4 ([2]; in words) | inhibition at 10 µM (CXCR4-CXCL12 binding; Table 2) | inhibition at 10 µM (CXCR4-CXCL12 binding; Table 4) |
| --- | --- | --- | --- | --- | --- | --- | --- | --- | --- | --- | --- | --- | --- | --- |
| COc1cc(/C=C/C(=O)c2ccc(Cl)cc2)ccc1O [Chalcone-4, (E)-1-(4-Chlorophenyl)-3-(4-hydroxy-3-methoxyphenyl)prop-2-en-1-one, reference compound] | totally abolished the atopic response to MC903 | prevents CXCR4 internalization | 100% | 100% | > 300 µM | 9 µM (≈ 2.6 µg/mL) | 96 ± 2% |  |  |  |  |  |  |  |
| COc1cc(-c2cc(-c3ccc(Cl)cc3)nc(=O)[nH]2)ccc1O [compound (1), 4-(4-Chlorophenyl)-6-(4-hydroxy-3-methoxyphenyl)pyrimidin-2(1H)-one] | inhibits atopic dermatitis induced by MC903; also recorded: totally abolished the atopic response to MC903 |  | 100% | 100% | > 5000 µM | 36.4 µM (≈ 12 µg/mL) | 76 ± 5% | significantly reduce peripheral blood hypercellularity | completely prevented the development of secondary hyperalgesia | no effect on the nociceptive threshold | no activity | better than the solubility of “chalcone-4”; also recorded: more soluble | 92 ± 5% | 76 ± 5% |
